Data set [1] concerns RAW264.7. The data set is described as follows: Cytotoxicity against mouse RAW264.7 cells by MTT assay. The class given is cell-based. For orientation: Formazan colour is commonly taken as a measure of viable cells.
The subject of data set [2] is RAW264.7. The data set is described as follows: Inhibition of LPS-induced NO production in mouse RAW264.7 cells pretreated for 30 mins followed by LPS challenge measured after 24 hrs by Griess assay. The class given is functional, cell-based.
Data set [3] has as its system RAW264.7. The data set is described as follows: Inhibition of LPS-induced NO production in mouse RAW264.7 cells pretreated for 30 mins followed by LPS challenge measured after 12 hrs by Griess assay. The class given is functional, cell-based. In general terms: Griess reagent forms a coloured azo dye with nitrite.

Each structure is given as a SMILES string.

For `COC(=O)[C@H]1O[C@@H](O[C@H]2CC[C@]3(C)[C@H]4CC=C5[C@@H]6CC(C)(C)CC[C@]6(CO)[C@H](O)C[C@@]5(C)[C@]4(C)CC[C@H]3C2(C)C)[C@H](O[C@@H]2O[C@@H](C)[C@H](O)[C@@H](O)[C@H]2O)[C@@H](O)[C@@H]1O`, in the data set with RAW264.7 [1], the Activity entry was “Non-Toxic”. In addition, in the data set on RAW264.7 [2], the IC50 (commonly the concentration at which inhibition is half-maximal) was 49.4 µM.

For `COc1cc(O)cc(O)c1C(=O)/C=C/c1ccccc1` [CARDAMOMIN], the half-maximal inhibitory concentration (IC50) in the data set on RAW264.7 [3] was 2.2 µM.
